Source: PubChem BioAssay AID2060484 (Molecular Pharmacology Branch, DTP, NCI, 2025)

Test system: SUM149PT spheroids with HUVEC/MSC, viability
Assay: Anticancer human tumor SUM149PT cell line growth inhibition [GQUAD];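 also: spheroids exposed to drugs for seven days before readout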;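 as to viability, T/C: percent viability relative to DMSO vehicle control taken as 100%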
Conditions: for IC50: curve of first compound; for viability, T/C: stronger effect = lower value; active = viability on the fitted dose curve at most 10% of control; inactive = the rest
In short: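 Tumor cells were grown as complex spheroids with HUVEC endothelial cells and mesenchymal stem cells as stroma. G-quadruplex stabilizers were combined with targeted agents over half-log dilutions from near the clinical Cmax, or from 10 microM.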

[1] = second compound 0.0316 µM, first compound 0.0316 µM
[2] = second compound 0.0316 µM, first compound 0.1 µM
[3] = second compound 0.0316 µM, first compound 0.316 µM
[4] = second compound 0.0316 µM, first compound 1 µM
[5] = second compound 0.0316 µM, first compound 3.16 µM
[6] = second compound 0.0316 µM, first compound 10 µM
[7] = second compound 0.1 µM, first compound 0.0316 µM
[8] = second compound 0.1 µM, first compound 0.1 µM
[9] = second compound 0.1 µM, first compound 0.316 µM
[10] = second compound 0.1 µM, first compound 1 µM
[11] = second compound 0.1 µM, first compound 3.16 µM
[12] = second compound 0.1 µM, first compound 10 µM
[13] = second compound 0.316 µM, first compound 0.0316 µM
[14] = second compound 0.316 µM, first compound 0.1 µM
[15] = second compound 0.316 µM, first compound 0.316 µM
[16] = second compound 0.316 µM, first compound 1 µM
[17] = second compound 0.316 µM, first compound 3.16 µM
[18] = second compound 0.316 µM, first compound 10 µM
[19] = second compound 1 µM, first compound 0.0316 µM
[20] = second compound 1 µM, first compound 0.1 µM
[21] = second compound 1 µM, first compound 0.316 µM
[22] = second compound 1 µM, first compound 1 µM
[23] = second compound 1 µM, first compound 3.16 µM
[24] = second compound 1 µM, first compound 10 µM
[25] = second compound 3.16 µM, first compound 0.0316 µM
[26] = second compound 3.16 µM, first compound 0.1 µM
[27] = second compound 3.16 µM, first compound 0.316 µM
[28] = second compound 3.16 µM, first compound 1 µM
[29] = second compound 3.16 µM, first compound 3.16 µM
[30] = second compound 3.16 µM, first compound 10 µM
[31] = second compound 10 µM, first compound 0.0316 µM
[32] = second compound 10 µM, first compound 0.1 µM
[33] = second compound 10 µM, first compound 0.316 µM
[34] = second compound 10 µM, first compound 1 µM
[35] = second compound 10 µM, first compound 3.16 µM
[36] = second compound 10 µM, first compound 10 µM

Nc1ccn(C2OC(CO)C(O)C2(F)F)c(=O)n1 (stereo not drawn) + Cc1[nH]c2ccc(F)cc2c1-c1nc2c3cccnc3c3ncccc3c2[nH]1
68.4 nM: IC50 (second compound 3.16 µM)
64.3 nM: IC50 (second compound 0.316 µM)
83.3 nM: IC50 (second compound 0.1 µM)
53.5 nM: IC50 (second compound 10 µM)
75.8 nM: IC50 (second compound 0.0316 µM)
inactive: viability, T/C [1] 82.8% | viability, T/C [2] 39.7% | viability, T/C [3] 22.1% | viability, T/C [4] 20.7% | viability, T/C [5] 17% | viability, T/C [6] 14.1% | viability, T/C [7] 69% | viability, T/C [8] 46.4% | viability, T/C [9] 19% | viability, T/C [10] 17.5% | viability, T/C [11] 16% | viability, T/C [12] 13.9% | viability, T/C [13] 70.4% | viability, T/C [14] 37.5% | viability, T/C [15] 21.6% | viability, T/C [16] 18.7% | viability, T/C [17] 17.5% | viability, T/C [18] 12% | viability, T/C [19] 77.1% | viability, T/C [20] 41.1% | viability, T/C [21] 24.7% | viability, T/C [22] 21% | viability, T/C [23] 17.1% | viability, T/C [24] 12.1% | viability, T/C [25] 75.8% | viability, T/C [26] 37.5% | viability, T/C [27] 20.8% | viability, T/C [28] 18.7% | viability, T/C [29] 15.3% | viability, T/C [30] 12% | viability, T/C [31] 62.8% | viability, T/C [32] 35.3% | viability, T/C [33] 19.9% | viability, T/C [34] 22.1% | viability, T/C [35] 15.6% | viability, T/C [36] 11.6%
76.3 nM: IC50 (second compound 1 µM)

CC(C)n1c(=O)n(C)c2cnc3cc(F)c(-c4ccc(OCCCN5CCCCC5)nc4)cc3c21 + Cc1[nH]c2ccc(F)cc2c1-c1nc2c3cccnc3c3ncccc3c2[nH]1
inactive: viability, T/C [1] 86.3% | viability, T/C [2] 80.9% | viability, T/C [3] 104% | viability, T/C [4] 96.4% | viability, T/C [5] 98.1% | viability, T/C [6] 67.7% | viability, T/C [7] 97.8% | viability, T/C [8] 90.8% | viability, T/C [9] 88% | viability, T/C [10] 101% | viability, T/C [11] 98.5% | viability, T/C [12] 73% | viability, T/C [13] 99.3% | viability, T/C [14] 91.3% | viability, T/C [15] 95% | viability, T/C [16] 103% | viability, T/C [17] 93.8% | viability, T/C [18] 73.2% | viability, T/C [19] 94.8% | viability, T/C [20] 96.4% | viability, T/C [21] 95.7% | viability, T/C [22] 97.5% | viability, T/C [23] 105% | viability, T/C [24] 69.4% | viability, T/C [25] 89.9% | viability, T/C [26] 91.5% | viability, T/C [27] 97.5% | viability, T/C [28] 92.5% | viability, T/C [29] 99.8% | viability, T/C [30] 64.3% | viability, T/C [31] 94.5% | viability, T/C [32] 77.6% | viability, T/C [33] 89% | viability, T/C [34] 92.5% | viability, T/C [35] 94.8% | viability, T/C [36] 62.5%
> 10000 nM: IC50 (second compound 0.0316 µM) | IC50 (second compound 0.1 µM) | IC50 (second compound 0.316 µM) | IC50 (second compound 1 µM) | IC50 (second compound 3.16 µM) | IC50 (second compound 10 µM)

COc1ccc([C@@H](O)c2cc(-c3ncnc4cc(N5CCOCC5)ccc34)c(F)cc2Cl)nn1 + Cc1cnc(CNC(=O)c2c(=O)c3ccc(N4CCCN(C)CC4)nc3n3c2sc2ccccc23)cn1
61.1 nM: IC50 (second compound 0.316 µM)
< 31.6 nM: IC50 (second compound 1 µM) | IC50 (second compound 3.16 µM) | IC50 (second compound 10 µM)
385 nM: IC50 (second compound 0.0316 µM)
inactive: viability, T/C [1] 88.4% | viability, T/C [2] 68.2% | viability, T/C [3] 55.8% | viability, T/C [4] 35.8% | viability, T/C [5] 24.5% | viability, T/C [6] 18.5% | viability, T/C [7] 65.8% | viability, T/C [8] 51.8% | viability, T/C [9] 44.1% | viability, T/C [10] 25.5% | viability, T/C [11] 21.5% | viability, T/C [12] 16.3% | viability, T/C [13] 53% | viability, T/C [14] 48.2% | viability, T/C [15] 36% | viability, T/C [16] 24.5% | viability, T/C [17] 19.2% | viability, T/C [18] 14.8% | viability, T/C [19] 43.4% | viability, T/C [20] 38.9% | viability, T/C [21] 35.4% | viability, T/C [22] 23.2% | viability, T/C [23] 19.6% | viability, T/C [24] 15.7% | viability, T/C [25] 34.5% | viability, T/C [26] 34.1% | viability, T/C [27] 29.4% | viability, T/C [28] 20.7% | viability, T/C [29] 17.6% | viability, T/C [30] 13.3%
active: viability, T/C [31] 0.17% | viability, T/C [32] 1.03% | viability, T/C [33] 0.2% | viability, T/C [34] 0.32% | viability, T/C [35] 1.7% | viability, T/C [36] 1.3%
142 nM: IC50 (second compound 0.1 µM)

COc1ncnc(C2CC2)c1-c1ncc2cnn(Cc3ccc(-c4nc(C(F)(F)F)cn4C(C)C)cc3)c2n1 + CN(C)c1ccc(Nc2c3ccc(NC(=O)CCN4CCCC4)cc3nc3cc(NC(=O)CCN4CCCC4)ccc23)cc1
inactive: viability, T/C [1] 101% | viability, T/C [2] 91.8% | viability, T/C [3] 84.1% | viability, T/C [4] 97.1% | viability, T/C [5] 89.8% | viability, T/C [6] 98.6% | viability, T/C [7] 94.8% | viability, T/C [8] 83.2% | viability, T/C [9] 88.7% | viability, T/C [10] 80.2% | viability, T/C [11] 93.4% | viability, T/C [12] 90.5% | viability, T/C [13] 90.5% | viability, T/C [14] 90.5% | viability, T/C [15] 75.7% | viability, T/C [16] 74.1% | viability, T/C [17] 88% | viability, T/C [18] 89.1% | viability, T/C [19] 79% | viability, T/C [20] 88.3% | viability, T/C [21] 83.5% | viability, T/C [22] 67.9% | viability, T/C [23] 64.2% | viability, T/C [24] 75.5% | viability, T/C [25] 82.6% | viability, T/C [26] 77.8% | viability, T/C [27] 65.1% | viability, T/C [28] 74.1% | viability, T/C [29] 72.1% | viability, T/C [30] 66.9% | viability, T/C [31] 84.1% | viability, T/C [32] 69% | viability, T/C [33] 70.5% | viability, T/C [34] 71.8% | viability, T/C [35] 71.8% | viability, T/C [36] 46.9%
> 10000 nM: IC50 (second compound 0.0316 µM) | IC50 (second compound 0.1 µM) | IC50 (second compound 0.316 µM) | IC50 (second compound 1 µM) | IC50 (second compound 3.16 µM)
8650 nM: IC50 (second compound 10 µM)
